Source: ChEMBL document CHEMBL1150748, “Isolation of the antimicrobial alkaloid stemmadenine from Iraqi Rhazya stricta” (1988)
Values after ≈ are worked out from the molar mass of the structure shown.

Key:
Assay type in all cases: functional
Pseudomonas aeruginosa = assay: Antimicrobial activity against Pseudomonas aeruginosa ATCC 9027
Escherichia coli = assay: Antimicrobial activity against Escherichia coli ATCC 8739
Staphylococcus aureus = assay: Antimicrobial activity against Staphylococcus aureus ATCC 6538
Candida albicans = assay: Antimicrobial activity against Candida albicans ATCC 10231

CCCCCCCCCCCCC[N+](C)(C)Cc1ccccc1.[Cl-] [BENZALKONIUM CHLORIDE]
MIC (Pseudomonas aeruginosa): 8 mg/L | MIC (Escherichia coli): 2.8 mg/L | MIC (Staphylococcus aureus): 0.32 mg/L | MIC (Candida albicans): 1.8 mg/L

CC(=O)O.CC(=O)O.NC(=N\CCCCCC/N=C(N)/N=C(\N)Nc1ccc(Cl)cc1)/N=C(\N)Nc1ccc(Cl)cc1 [CHLORHEXIDINE DIACETATE]
MIC (Pseudomonas aeruginosa): 1.5 mg/L | MIC (Escherichia coli): 0.4 mg/L | MIC (Staphylococcus aureus): 0.2 mg/L | MIC (Candida albicans): 4.5 mg/L

C/C=C1/CN2CCc3c([nH]c4ccccc34)[C@@](CO)(C(=O)OC)[C@@H]1CC2 [STEMMADENINE]
MIC (Pseudomonas aeruginosa): 7.5 mg/L (≈ 21.2 µM) | MIC (Escherichia coli): 1.25 mg/L (≈ 3.53 µM) | MIC (Staphylococcus aureus): 5 mg/L (≈ 14.1 µM) | MIC (Candida albicans): 37.5 mg/L (≈ 106 µM)

THIMEROSAL
MIC (Pseudomonas aeruginosa): 1.5 mg/L | MIC (Escherichia coli): 0.6 mg/L | MIC (Staphylococcus aureus): 0.2 mg/L | MIC (Candida albicans): 0.1 mg/L
